From PMC9695682, “Flavonoids from Piper Species as Promising Antiprotozoal Agents against Giardia intestinalis: Structure-Activity Relationship and Drug-Likeness Studies” (Pharmaceuticals, 2022) come the findings set out here.

Test system in one data set: not listed separately
The data set is described as follows: Cytotoxicity assay on murine macrophages (resazurin, 48 h). The class given is cell-based. Particulars: mouse, J774 macrophage cell line; J774 cell line, 48 h; extract, fractions and sub-fractions. The method, then: (§1) A., Madrid, Spain) at 37 °C and 5% CO2 air atmosphere. The assay was carried out according to a previously described method. […] Growth controls and signal-to-noise were also included. Afterward, a volume of 20 μL of 2.5 mM resazurin solution in PBS was added, and plates were placed again in the incubator for another 3 h to evaluate cell viability. The reduction of resazurin was determined by fluorometry as in the promastigote assay. Each concentration was assayed in triplicate. […] All values were expressed as means ± standard error of the mean (S.E.M.). Statistically significant differences between treated and control samples were tested by one-way analysis of variance (ANOVA).
The molecule `Cc1ncc([N+](=O)[O-])n1CCO` [Metronidazole, reference compound] had a CC50 at 48 h of 233 µg/mL.

Staying with this data set, now noted: mouse, J774 macrophage cell line; J774 cell line, 48 h; pure flavonoids.
As for `COc1cc(O)cc(/C=C/C(=O)c2c(O)cc(OC)cc2OC)c1` [Compound 4, 2′,3-Dihydroxy-4′,6′,5-trimethoxychalcone], it took 14.2 ± 0.2 µM to reach half-maximal cytotoxicity (CC50 at 48 h).

Regarding `COc1cc(O)cc(O)c1C(=O)CCc1ccccc1` [Compound 16, uvangoletin], the CC50 at 48 h was > 367 µM.

With `COc1cc(O)cc(O)c1C(=O)/C=C/c1cccc(O)c1` [Compound 1, 2′,4′,3-Trihydroxy-6′-methoxychalcone], the CC50 at 48 h was determined as 12.9 ± 0.2 µM.

Molecule `COc1cc(OC)c(C(=O)/C=C/c2ccccc2)c(O)c1O` [Compound 12, 2′,3′-dihydroxy-4′,6′-dimethoxychalchone] displayed a CC50 at 48 h of 25.3 ± 0.4 µM.

As to `COc1cccc(/C=C/C(=O)c2c(O)cc(O)cc2OC)c1` [Compound 7, 2′,4′-dihydroxy-3,6′-dimethoxychalchone], half-maximal cytotoxicity (CC50 at 48 h) was put at 15.7 ± 0.2 µM.

As for `COc1cc(O)c(OC)c(O)c1C(=O)/C=C/c1cccc(O)c1` [Compound 2, 2′,4′,3-Trihydroxy-3′,6′-dimethoxychalcone], the half-maximal cytotoxic concentration (CC50) at 48 h was 184 ± 2.6 µM.

The molecule `COc1cc(O)cc(/C=C/C(=O)c2c(O)cc(O)cc2OC)c1` [Compound 3, 2′,4′,3-Trihydroxy-6′,5-dimethoxychalcone] gave a CC50 at 48 h of 12 ± 0.1 µM.

`COc1cccc(/C=C/C(=O)c2c(OC)cc(O)c(OC)c2O)c1` [Compound 10, 2′,4′-dihydroxy-3,3′,6′-trimethoxychalcone] came in with a half-maximal cytotoxic concentration (CC50) at 48 h of 44.2 ± 0.7 µM.

`COc1cc(O)cc(/C=C/C(=O)c2c(OC)cc(OC)c(O)c2O)c1` [Compound 11, 2′,3′,5-trihydroxy-4′,6′,3-trimethoxychalcone] returned a CC50 at 48 h of 48.5 ± 0.8 µM.

In turn, `COc1cccc(C2CC(=O)c3c(OC)cc(OC)cc3O2)c1` (stereo not drawn) [Compound 24, 5,7,3′-trimethoxyflavanone] displayed a cytotoxic concentration (CC50) at 48 h of 144 ± 2.3 µM.

With `Cc1ncc([N+](=O)[O-])n1CCO` [Metronidazole, reference compound], the CC50 at 48 h was > 584 µM.

`COc1cccc(/C=C/C(=O)c2c(O)cc(OC)cc2OC)c1` [Compound 9, 2′-hydroxy-3,4′,6′-trimethoxychalchone]: half-maximal cytotoxicity (CC50 at 48 h) was put at 22.6 ± 0.5 µM.

`COc1cc(/C=C/C(=O)c2c(O)cc(O)cc2OC)ccc1O` [Compound 14, 2′,4′,4-trihydroxy-3,6′-dimethoxychalchone] came in with a CC50 at 48 h of 16.5 ± 0.03 µM.

The data set is the same for the next values; noted with them: mouse; J774 cell line, 48 h; pure flavonoids.
Molecule `COc1cc(O)cc(O)c1C(=O)/C=C/c1ccccc1` [Compound 8, 2′,4′-dihydroxy-6′-methoxychalchone] returned a CC50 at 48 h of 37.8 ± 1.1 µM.

Turning to `COc1cc(O)c2c(c1)O[C@H](c1ccc(O)cc1)CC2=O` [Compound 23, sakuranetin], the CC50 at 48 h was found to be 184 ± 2.3 µM.

Another data set concerns murine macrophage J774 cell line. The description is as above. The class given is cell-based.
Conditions: not given
The method, then:
as §1
For EtOH, the “Macrophages CC50” value was found to be 7.1 ± 0.6 µg/mL.

Staying with this data set, now noted: J774 macrophages vs G. intestinalis; pure flavonoids (Table 4).
Take `COc1cc(O)cc(/C=C/C(=O)c2c(O)cc(OC)cc2OC)c1` [Compound 4, 2′,3-Dihydroxy-4′,6′,5-trimethoxychalcone]: the “SI: selectivity index (CC50/IC50)” value was 233.

With `COc1cc(O)cc(O)c1C(=O)CCc1ccccc1` [Compound 16, uvangoletin], the “SI: selectivity index (CC50/IC50)” value is on record as >5.2.

With `COc1cc(O)cc(O)c1C(=O)/C=C/c1cccc(O)c1` [Compound 1, 2′,4′,3-Trihydroxy-6′-methoxychalcone], the “SI: selectivity index (CC50/IC50)” value came to 1.8.

For `COc1cc(OC)c(C(=O)/C=C/c2ccccc2)c(O)c1O` [Compound 12, 2′,3′-dihydroxy-4′,6′-dimethoxychalchone], the “SI: selectivity index (CC50/IC50)” value stood at 3.5.

On to `COc1cc(O)c(OC)c(O)c1C(=O)/C=C/c1cccc(O)c1` [Compound 2, 2′,4′,3-Trihydroxy-3′,6′-dimethoxychalcone], for which the “SI: selectivity index (CC50/IC50)” value stood at 3.9.

Regarding `COc1cccc(/C=C/C(=O)c2c(OC)cc(O)c(OC)c2O)c1` [Compound 10, 2′,4′-dihydroxy-3,3′,6′-trimethoxychalcone], the “SI: selectivity index (CC50/IC50)” value was found to be 1.4.

In the case of `COc1cc(O)cc(/C=C/C(=O)c2c(OC)cc(OC)c(O)c2O)c1` [Compound 11, 2′,3′,5-trihydroxy-4′,6′,3-trimethoxychalcone], the “SI: selectivity index (CC50/IC50)” value turned out to be 2.2.

On to `COc1cccc(C2CC(=O)c3c(OC)cc(OC)cc3O2)c1` (stereo not drawn) [Compound 24, 5,7,3′-trimethoxyflavanone], for which the “SI: selectivity index (CC50/IC50)” value is on record as 2.9.

In the case of `Cc1ncc([N+](=O)[O-])n1CCO` [Metronidazole, reference compound], the “SI: selectivity index (CC50/IC50)” value is >233.

For the molecule `COc1cc(O)c2c(c1)O[C@H](c1ccc(O)cc1)CC2=O` [Compound 23, sakuranetin], the “SI: selectivity index (CC50/IC50)” value is on record as 3.5.

On to `COc1cc(/C=C/C(=O)c2c(O)cc(O)cc2OC)ccc1O` [Compound 14, 2′,4′,4-trihydroxy-3,6′-dimethoxychalchone], for which the “SI: selectivity index (CC50/IC50)” value was 1.6.

A further data set relates to Giardia intestinalis trophozoites. The data set is described as follows: In vitro assay on trophozoite form of Giardia intestinalis (resazurin, 48 h). It is filed as cell-based. Particulars: Giardia duodenalis; trophozoites, 48 h; extract, fractions and sub-fractions of Piper delineatum leaves; read-out: G. intestinalis IC50. The method, then: Trophozoites of Giardia (strain ATCC® 203333) were grown in modified TYI-S-33 medium at pH 7.0, supplemented with 10% heat-inactivated fetal calf serum and 0.5 g bovine bile (Sigma-Aldrich, St Louis, MO, USA), in 20 mL screw-cap culture vials. The assay was carried out according to a previously described method. Detachment of trophozoites for preparation of inoculant was achieved by chilling the cultures on ice for 20 min. Trophozoites (5 × 10^4 parasites/well) were cultured in 96-well plastic plates (Sarstedt, Nümbrecht, Germany). Compounds were dissolved in DMSO. […] To evaluate cell viability, the fluorescence intensity (535 nm-excitation wavelength- and 590 nm-emission wavelength) was determined with a fluorimeter Infinite 200 (Tecan i-Control, Tecan Ibérica Instrumentation S.L., Barcelona, Spain) to calculate the growth inhibition rate (%). All tests were carried out in triplicate. Metronidazole was used as a reference drug. […] All values were expressed as means ± standard error of the mean (S.E.M.). Statistically significant differences between treated and control samples were tested by one-way analysis of variance (ANOVA).
`Cc1ncc([N+](=O)[O-])n1CCO` [Metronidazole, reference compound]: the IC50 came out at 0.4 ± 0.1 µg/mL.

Staying with this data set, now noted: Giardia duodenalis; trophozoites, 48 h; pure flavonoids; read-out: G. intestinalis IC50.
As to `COc1cc(O)cc(/C=C/C(=O)c2c(O)cc(OC)cc2OC)c1` [Compound 4, 2′,3-Dihydroxy-4′,6′,5-trimethoxychalcone], the half-maximal inhibitory concentration (IC50) was determined as 0.061 ± 0.001 µM.

For the molecule `COc1cc(O)cc(O)c1C(=O)CCc1ccccc1` [Compound 16, uvangoletin], the IC50 came to 70.5 ± 0.3 µM.

As to `COc1cc(O)cc(O)c1C(=O)/C=C/c1cccc(O)c1` [Compound 1, 2′,4′,3-Trihydroxy-6′-methoxychalcone], the IC50 came to 7 ± 0.1 µM.

Take `COc1cc(OC)c(C(=O)/C=C/c2ccccc2)c(O)c1O` [Compound 12, 2′,3′-dihydroxy-4′,6′-dimethoxychalchone]: the IC50 stood at 7.3 ± 0.6 µM.

Take `COc1cccc(/C=C/C(=O)c2c(O)cc(O)cc2OC)c1` [Compound 7, 2′,4′-dihydroxy-3,6′-dimethoxychalchone]: the IC50 was 4.7 ± 0.1 µM.

As for `COc1cc(O)c(OC)c(O)c1C(=O)/C=C/c1cccc(O)c1` [Compound 2, 2′,4′,3-Trihydroxy-3′,6′-dimethoxychalcone], the half-inhibitory concentration (IC50) is 47.7 ± 1.2 µM.

`COc1cc(O)cc(/C=C/C(=O)c2c(O)cc(O)cc2OC)c1` [Compound 3, 2′,4′,3-Trihydroxy-6′,5-dimethoxychalcone]: the IC50 was 6 ± 0.3 µM.

For `COc1cccc(/C=C/C(=O)c2c(OC)cc(O)c(OC)c2O)c1` [Compound 10, 2′,4′-dihydroxy-3,3′,6′-trimethoxychalcone], the IC50 stood at 32.7 ± 1.3 µM.

Regarding `COc1cc(O)cc(O)c1C(=O)/C=C/c1ccccc1` [Compound 8, 2′,4′-dihydroxy-6′-methoxychalchone], the IC50 is 9.6 ± 0.2 µM.

Regarding `COc1cc(O)cc(/C=C/C(=O)c2c(OC)cc(OC)c(O)c2O)c1` [Compound 11, 2′,3′,5-trihydroxy-4′,6′,3-trimethoxychalcone], the IC50 was determined as 22.5 ± 0.8 µM.

As for `COc1cccc(C2CC(=O)c3c(OC)cc(OC)cc3O2)c1` (stereo not drawn) [Compound 24, 5,7,3′-trimethoxyflavanone], the IC50 is 49.3 ± 0.9 µM.

As for `Cc1ncc([N+](=O)[O-])n1CCO` [Metronidazole, reference compound], the IC50 amounted to 2.5 ± 0.1 µM.

Consider `COc1cccc(/C=C/C(=O)c2c(O)cc(OC)cc2OC)c1` [Compound 9, 2′-hydroxy-3,4′,6′-trimethoxychalchone], for which the IC50 came out at 10.8 ± 0.1 µM.

For the molecule `COc1cc(O)c2c(c1)O[C@H](c1ccc(O)cc1)CC2=O` [Compound 23, sakuranetin], the IC50 was found to be 52.4 ± 2.1 µM.

With `COc1cc(/C=C/C(=O)c2c(O)cc(O)cc2OC)ccc1O` [Compound 14, 2′,4′,4-trihydroxy-3,6′-dimethoxychalchone], the IC50 was 10.4 ± 0.2 µM.

The data set is the same for the next values; noted with them: IC50 ratio to the reference drug metronidazole.
As to `COc1cc(O)cc(/C=C/C(=O)c2c(O)cc(OC)cc2OC)c1` [Compound 4, 2′,3-Dihydroxy-4′,6′,5-trimethoxychalcone], the “Antiparasitic potency relative to metronidazole” value came to 41 fold.
